Experimental data published in paper PMC7139479, “Insights into Interactions of Flavanones with Target Human Respiratory Syncytial Virus M2-1 Protein from STD-NMR, Fluorescence Spectroscopy, and Computational Simulations” (International Journal of Molecular Sciences, 2020).

What was measured:
hRSV M2-1 protein [1] = target: T1, hRSV M2-1 protein (Human respiratory syncytial virus A, UniProt P04545); test: Fluorescence quenching of M2-1 by flavanones (double-log plot, thermodynamic analysis); format: binding, human Respiratory Syncytial Virus (hRSV A2 strain); conditions: for Enthalpy change ΔH: Van't Hoff equation from Kb at 288 and 298 K
T1 construct: allowing the expression of the full-length M2-1 with N-terminal fused to a His6-tag; made in house; host or cells: Escherichia coli BL21 RIL
T1 sequence (P04545 whole entry, the tested form may be a part): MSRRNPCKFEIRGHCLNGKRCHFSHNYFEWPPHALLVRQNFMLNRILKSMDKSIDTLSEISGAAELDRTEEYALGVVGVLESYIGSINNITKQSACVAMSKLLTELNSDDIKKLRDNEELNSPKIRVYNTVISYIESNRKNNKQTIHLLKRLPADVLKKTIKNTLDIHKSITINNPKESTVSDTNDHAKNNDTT
Method: The fluorescence measurements were performed on a steady-state ISS-PC1 spectrofluorimeter with temperature control (thermal bath Neslab RTE-221) and equipped with quartz cuvette of 10 mm optical path length. The excitation and emission bandwidths were set at 4 and 8 nm, respectively. The excitation wavelength was of 290 nm and the emission spectra were reported between 295 and 500 nm with 10 accumulations for each collected point. The emission spectrum was corrected for the background fluorescence from the buffer solution and for inner filter effect promoted by the flavonoids. The protein-ligand interaction measures were performed by collecting the fluorescence spectra of the protein in the absence of ligand (2 mL at 6 μM) and checking for quenching of intensities after addition of increasing concentrations of flavonoids, at 288 and 298 K (15 and 25 °C). The flavonoids’ concentrations varied from 0 to 26 μM in the final solution, with the emission of the hRSV M2-1 protein analyzed at 320 nm.
For the data analysis, it was hypothesized that the binding sites of the flavonoids on the M2-1 protein are equal and independent. Thus, the binding constant (Kb) and the number of binding sites (n) can be calculated using the following equation [46]:(2) log(F0−F/F)=n·logKb+n·log1/([LT]−(F0−F/F0)[PT]) where F0 and F are the fluorescence intensity of the M2-1 protein in the absence and in the presence of the flavonoids, respectively. [PT] and [LT] is the total concentration of M2-1 protein and ligand (flavonoids), respectively. The values of Kb and n for the M2-1/flavonoids complex are obtained from the ordinate and slope of the linear fitting from the double-log plot log((F0 − F)/F) & log(1/([LT] − ((F0 − F)/F0)[PT])), respectively.
In order to investigate the driving forces responsible for the binding of the flavonoids hesperetin and hesperidin to the M2-1 protein, the enthalpy change (ΔH) of this interaction was calculated from the Van’t Hoff equation:(3) lnKb2/Kb1=−ΔH/R(1/T2−1/T1) where Kb1 and Kb2 are binding constants at the absolute temperatures T1 and T2, which were 288 and 298 K (15 and 25 °C), respectively. R corresponds to the universal gas constant ([…]). The Gibbs free energy (ΔG) and entropy changes (ΔS) for the M2-1/flavonoids complex were calculated from the following equations:(4) ΔG=−R·T·lnKb (5) ΔS=ΔH−ΔG/T

hRSV M2-1 protein [2] = target: T1, hRSV M2-1 protein; test: STD-NMR of M2-1/flavanone binding; parameters: species or system human Respiratory Syncytial Virus (hRSV A2 strain); conditions: 298 K, 50 µM protein, 250 µM flavonoid
Method: STD-NMR experiments were performed on a Bruker Avance III 600.13 MHz equipped with a triple resonance 5 mm cryoprobe, having the pulse field gradient along the Z axis. All data were analyzed with Bruker Topspin v3.5. A total concentration of 50 μM hRSV M2-1 protein in 50 mM K2HPO4/KH2PO4 buffer (pH 7.4) containing 150 mM NaCl and 1 mM DTT at 80/20% H2O/D2O was used for all measurements. The concentration of the flavonoids used in binding experiments was of 250 μM. The on- and off-resonance frequencies were set at −0.5 and 40 ppm, providing the best profile of protein saturation and STD effect. […] A total of 16 scans with 32 loop counters were collected with 4 dummy scans. For the suppression of the protein signals, it was applied a spinlock filter of 30 ms with 0.776 W. All measurements were performed at 298 K (25 °C) and it was used a flavonoid stock solution solubilized in deuterated DMSO-d6.
The STD effect ( ISTD ) on a given proton of the ligand was calculated according to the following equation [43, 44]:(1) ISTD=Ioff-resonance−Ion-resonance/I off-resonance where Ion-resonance and Ioff-resonance are the intensities of the ligand signals in the on- and off-resonance spectrum, respectively. The proton of the flavonoid with the highest STD effect (magnetization transfer maximum) was equal to 100% and the others protons were normalized according to this signal. The identification of ^1H NMR signals of the flavonoids at buffer solution [50 mM K2HPO4/KH2PO4 buffer (pH 7.4) at 80/20% H2O/D2O containing 150 mM NaCl and 1 mM DTT] was assisted by the resonance assignment from Chemical Book database (www.chamicalbook.com) under access code 520-33-2.

RSV = system: RSV; parameters: method as in earlier work; conditions: against RSV; ref 28 (Kaul et al., 1985); cited from earlier work

## COc1ccc([C@@H]2CC(=O)c3c(O)cc(O[C@@H]4O[C@H](CO[C@@H]5O[C@@H](C)[C@H](O)[C@@H](O)[C@H]5O)[C@@H](O)[C@H](O)[C@H]4O)cc3O2)cc1O [HSD, Hesperidin]
hRSV M2-1 protein [1]; 288 K
  Gibbs free energy change ΔG: -5.2 kcal/mol
  Number of binding sites n: 0.89
  T·ΔS: 3.5 kcal/mol
hRSV M2-1 protein [1]; 298 K
  Gibbs free energy change ΔG: -5.4 kcal/mol
  Number of binding sites n: 0.93
  T·ΔS: 3.7 kcal/mol
hRSV M2-1 protein [1]
  Enthalpy change ΔH: -1.7 kcal/mol
hRSV M2-1 protein [2]
  STD effect, 1H protons on B-ring (normalized to highest signal): 96%

## COc1ccc([C@@H]2CC(=O)c3c(O)cc(O)cc3O2)cc1O [HST, Hesperetin]
hRSV M2-1 protein [1]; 288 K
  Gibbs free energy change ΔG: -6.5 kcal/mol
  Number of binding sites n: 1.05
  T·ΔS: -22.5 kcal/mol
hRSV M2-1 protein [1]; 298 K
  Gibbs free energy change ΔG: -5.7 kcal/mol
  Number of binding sites n: 1.04
  T·ΔS: -23.3 kcal/mol
hRSV M2-1 protein [1]
  Enthalpy change ΔH: -29.0 kcal/mol
hRSV M2-1 protein [2]
  STD effect, 1H protons on B-ring (normalized to highest signal): 72%
  STD effect, hydrogens on A-ring (normalized to highest signal): 100%
RSV
  Anti-replicative activity: 88%
